Patent US20120296067A1, “COMPOUND CAPABLE OF BINDING TO NATURALLY OCCURRING DENATURED PROTEIN, AND METHOD FOR SCREENING FOR THE COMPOUND” (Prism BioLab Co., Ltd., priority 2010, published 2012)
“Also recorded” adds a separate entry of the source.

How the values were obtained:
[1] = target: T1, CBP (1-111) (disordered sequence region) (Homo sapiens, UniProt Q92793); assay: 2D NMR analysis of 15N-labeled CBP (1-111) with ICG-001; format: binding; settings: 5 μM or 15 μM ICG-001
T1 construct: NMR analysis using CBP (1-111) expressed in E. coli as a sample; made in house; host or cells: E. coli
Procedure: ^15N-labeled CBP (1^-111) (disordered sequence region) was expressed E. coli and dissolved in a buffer (NaP 25 mM·pH 6.8, NaCl 50 mM, 0.02% NaN3), and 300 μl thereof was introduced into an NMR sample tube. Moreover, a D2O solution of ICG-001 was added so as to attain an ICG^-001 concentration of 5 μM or 15 μM. Solutions prepared in this manner as NMR samples were subjected to an NMR analysis. In the NMR analysis, the measurement and analysis was carried out to give a 2D spectrum, with the X axis indicating […] data and the Y axis indicating N-15 data.

CBP = target: T2, CBP (Homo sapiens, UniProt Q92793); settings: SW480 nuclear extract; FIG. 1; cited from earlier work
T2 construct: endogenous in cells; host or cells: SW480 nuclear extract

[2] = target: T3, CBP (1-111) (disordered sequence region) and β-catenin (Homo sapiens, UniProt Q92793); settings: cited from earlier work
T3 construct: made in house; host or cells: E. coli

[3] = target: T4, p300 (1-111) (disordered sequence region) (Homo sapiens, UniProt Q09472); settings: p300 (1-111) expressed in E. coli; cited from earlier work
T4 construct: made in house; host or cells: E. coli
T4 sequence (Q09472 1-111): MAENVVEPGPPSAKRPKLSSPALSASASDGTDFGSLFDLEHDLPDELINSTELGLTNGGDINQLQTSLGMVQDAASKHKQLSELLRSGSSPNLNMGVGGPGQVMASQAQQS

T3 sequence (Q92793 1-111): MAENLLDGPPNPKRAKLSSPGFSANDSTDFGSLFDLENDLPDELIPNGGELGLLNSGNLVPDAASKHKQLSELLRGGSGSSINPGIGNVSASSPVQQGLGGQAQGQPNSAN
T1 sequence (Q92793 1-111): as above
T2 sequence (Q92793 whole entry): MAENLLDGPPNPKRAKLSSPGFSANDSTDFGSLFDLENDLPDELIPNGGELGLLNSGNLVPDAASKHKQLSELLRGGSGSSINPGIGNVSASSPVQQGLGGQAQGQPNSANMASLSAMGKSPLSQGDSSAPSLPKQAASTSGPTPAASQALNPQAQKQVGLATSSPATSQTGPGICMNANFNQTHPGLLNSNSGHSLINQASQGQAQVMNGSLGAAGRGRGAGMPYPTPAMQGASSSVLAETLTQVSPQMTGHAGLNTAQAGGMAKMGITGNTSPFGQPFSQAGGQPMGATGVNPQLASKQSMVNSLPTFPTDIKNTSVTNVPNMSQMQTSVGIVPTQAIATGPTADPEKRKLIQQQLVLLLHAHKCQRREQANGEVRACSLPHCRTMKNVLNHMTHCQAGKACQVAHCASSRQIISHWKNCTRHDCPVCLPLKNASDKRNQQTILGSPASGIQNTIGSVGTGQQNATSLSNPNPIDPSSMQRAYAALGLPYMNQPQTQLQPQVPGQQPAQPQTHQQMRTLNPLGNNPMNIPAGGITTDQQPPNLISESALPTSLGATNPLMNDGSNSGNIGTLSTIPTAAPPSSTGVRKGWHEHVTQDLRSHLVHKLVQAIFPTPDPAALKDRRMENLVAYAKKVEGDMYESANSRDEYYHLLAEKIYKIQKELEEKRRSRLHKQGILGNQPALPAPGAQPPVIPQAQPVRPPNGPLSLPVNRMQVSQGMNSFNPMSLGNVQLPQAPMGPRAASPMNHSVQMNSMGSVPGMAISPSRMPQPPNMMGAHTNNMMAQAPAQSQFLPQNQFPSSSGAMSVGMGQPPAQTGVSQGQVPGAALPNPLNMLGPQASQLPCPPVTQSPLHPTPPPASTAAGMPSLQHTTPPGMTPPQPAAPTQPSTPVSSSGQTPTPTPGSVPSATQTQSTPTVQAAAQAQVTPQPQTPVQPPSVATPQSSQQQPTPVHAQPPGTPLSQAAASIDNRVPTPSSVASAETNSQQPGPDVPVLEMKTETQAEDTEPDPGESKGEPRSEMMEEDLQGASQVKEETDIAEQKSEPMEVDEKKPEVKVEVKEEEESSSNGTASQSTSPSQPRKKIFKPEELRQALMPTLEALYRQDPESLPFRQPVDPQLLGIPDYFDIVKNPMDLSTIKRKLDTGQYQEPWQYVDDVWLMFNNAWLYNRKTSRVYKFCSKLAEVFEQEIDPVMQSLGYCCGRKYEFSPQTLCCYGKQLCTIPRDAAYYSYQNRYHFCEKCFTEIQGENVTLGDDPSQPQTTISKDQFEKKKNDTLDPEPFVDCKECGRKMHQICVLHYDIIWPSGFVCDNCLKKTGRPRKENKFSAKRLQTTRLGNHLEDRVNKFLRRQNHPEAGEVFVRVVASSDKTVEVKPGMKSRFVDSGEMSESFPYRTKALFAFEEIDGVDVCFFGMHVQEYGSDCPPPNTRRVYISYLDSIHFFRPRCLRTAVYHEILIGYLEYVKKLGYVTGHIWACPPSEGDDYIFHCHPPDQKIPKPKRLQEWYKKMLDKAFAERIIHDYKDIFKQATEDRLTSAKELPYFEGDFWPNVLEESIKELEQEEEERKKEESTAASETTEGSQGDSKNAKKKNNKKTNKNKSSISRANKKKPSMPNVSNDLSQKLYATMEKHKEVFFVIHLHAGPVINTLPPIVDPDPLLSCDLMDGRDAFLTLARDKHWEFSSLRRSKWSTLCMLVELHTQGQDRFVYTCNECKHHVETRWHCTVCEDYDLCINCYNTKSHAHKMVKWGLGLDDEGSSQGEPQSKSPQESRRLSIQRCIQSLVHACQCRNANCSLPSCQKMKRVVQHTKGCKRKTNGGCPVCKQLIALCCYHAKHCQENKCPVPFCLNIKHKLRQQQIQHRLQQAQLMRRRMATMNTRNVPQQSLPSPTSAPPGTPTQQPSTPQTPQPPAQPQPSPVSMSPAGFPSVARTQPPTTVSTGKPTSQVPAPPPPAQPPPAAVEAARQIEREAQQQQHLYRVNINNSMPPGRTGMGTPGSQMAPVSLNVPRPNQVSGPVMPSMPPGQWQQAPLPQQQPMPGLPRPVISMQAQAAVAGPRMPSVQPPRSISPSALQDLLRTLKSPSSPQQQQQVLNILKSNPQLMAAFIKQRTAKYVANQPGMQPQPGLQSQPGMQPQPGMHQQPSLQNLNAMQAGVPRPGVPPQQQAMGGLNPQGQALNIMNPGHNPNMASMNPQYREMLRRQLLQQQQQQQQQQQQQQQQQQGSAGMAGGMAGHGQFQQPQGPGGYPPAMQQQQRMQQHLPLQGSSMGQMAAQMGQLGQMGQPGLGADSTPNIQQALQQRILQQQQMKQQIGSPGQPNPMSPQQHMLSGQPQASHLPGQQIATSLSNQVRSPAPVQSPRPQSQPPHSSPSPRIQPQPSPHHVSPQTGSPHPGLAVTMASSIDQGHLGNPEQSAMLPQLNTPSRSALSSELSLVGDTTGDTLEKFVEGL

Compound: O=C1[C@H](Cc2ccc(O)cc2)N2C(=O)CCN(C(=O)NCc3ccccc3)[C@H]2CN1Cc1cccc2ccccc12 [ICG-001]
- interaction between CBP1-111 and compound (NMR) [1]: clear interaction
- change of NMR peak of CBP1-111 on addition of compound ([1]; buffer pH 6.8, FIGS. 5 and 6): change of a peak
- binding to CBP (pull-down) (CBP): binds to CBP; also recorded: bound to CBR
- separation of CBP (1-111) from β-catenin on addition of compound ([2]; CBP (1-111) and β-catenin expressed in E. coli, pulled down by immunoprecipitation): CBP (1-111) became separated
- binding to the N-terminus of CBP ([2]; CBP (1-111), FIG. 2): binds to the N-terminus sequence of CBP; also recorded: bound to the N-terminus of CBP
- binding to p300 [3]: does not binds to p300; also recorded: did not bind; also recorded: does not occur
